Experimental data taken from patent EP0931079B1, “SUBSTITUTED BENZOCYCLOHEPTAPYRIDINE DERIVATIVES USEFUL FOR INHIBITION OF FARNESYL PROTEIN TRANSFERASE” (SCHERING CORPORATION, priority 1996, dated 1998).
pIC50: −log10 of the molar value.

How the values were obtained:
[1] = molecular target: T1, farnesyl protein transferase (Homo sapiens, UniProt P49354+P49356); test: FPT IC50 (H-ras), inhibition of farnesyl protein transferase, in vitro enzyme assay; type: biochemical; details: range stated for the listed compounds as a group
Method: (§1) FPT IC50 (inhibition of farnesyl protein transferase, in vitro enzyme assay) and COS Cell IC50 (Cell-Based Assay) were determined following the assay procedures described in WO 95/10516, published April 20, 1995. GGPT IC50 (inhibition of geranylgeranyl protein transferase, in vitro enzyme assay), Cell Mat Assay, and anti-tumor activity (in vivo anti-tumor studies) could be determined by the assay procedures described in WO 95/10516. The disclosure of WO 95/10516 is incorporated herein by reference thereto.

[2] = molecular target: T1, farnesyl protein transferase; test: FPT IC50 (K-ras), inhibition of farnesyl protein transferase, in vitro enzyme assay; type: biochemical; details: range stated for the listed compounds as a group
Method: as §1

COS Cell = COS Cell IC50 (Cell-Based Assay); details: range stated for the listed compounds as a group
Method: as §1

Human tumor cells = test: Soft Agar Assay (anchorage-independent growth, colony outgrowth); type: cell-based; details: colonies after 10-16 days at 37°C, range stated for the listed compounds as a group, read-out: Soft Agar FPT IC50
Method: Anchorage-independent growth is a characteristic of tumorigenic cell lines. Human tumor cells are suspended in growth medium containing 0.3% agarose and an indicated concentration of a famesyl transferase inhibitor. The solution is overlayed onto growth medium solidified with 0.6% agarose containing the same concentration of farnesyl transferase inhibitor as the top layer. After the top layer is solidified, plates are incubated for 10-16 days at 37°C under 5% CO2 to allow colony outgrowth. After incubation, the colonies are stained by overlaying the agar with a solution of MTT (3-[4,5-dimethyl-thiazol-2-yl]-2,5-diphenyltetrazolium bromide, Thiazolyl blue) (1 mg/mL in PBS). Colonies can be counted and the IC50's can be determined.

SMILES	pIC50 [1]	pIC50 [2]	pIC50 (COS Cell)	pIC50 (Human tumor cells)
NC(=O)CN1CCC(CC(=O)N2CCC([C@H]3c4ncc(Br)cc4CCc4cc(Cl)cc(Br)c43)CC2)CC1 [Compound 2.0]	7.55 to 8.74	7.28 to 8.07	6.08 to 8.22	≤ 7.22
CON(C)C(=O)CN1CCC(CC(=O)N2CCC([C@H]3c4ncc(Br)cc4CCc4cc(Cl)cc(Br)c43)CC2)CC1 [Compound 3.0]	7.55 to 8.74	7.28 to 8.07	6.08 to 8.22	≤ 7.22
CCN(CC)C(=O)CN1CCC(CC(=O)N2CCC([C@H]3c4ncc(Br)cc4CCc4cc(Cl)cc(Br)c43)CC2)CC1 [Compound 4.0]	7.55 to 8.74	7.28 to 8.07	6.08 to 8.22	≤ 7.22
O=C(CN1CCC(CC(=O)N2CCC([C@H]3c4ncc(Br)cc4CCc4cc(Cl)cc(Br)c43)CC2)CC1)NCc1ccccc1 [Compound 5.0]	7.55 to 8.74	7.28 to 8.07	6.08 to 8.22	
O=C(CN1CCC(CC(=O)N2CCC([C@H]3c4ncc(Br)cc4CCc4cc(Cl)cc(Br)c43)CC2)CC1)N[C@@H]1O[C@H](CO)[C@H](O)[C@H](O)[C@H]1O [Compound 6.0]	7.55 to 8.74	7.28 to 8.07	6.08 to 8.22	≤ 7.22
O=C(CC1CCN(CC(=O)N2CCOCC2)CC1)N1CCC([C@H]2c3ncc(Br)cc3CCc3cc(Cl)cc(Br)c32)CC1 [Compound 7.0]	7.55 to 8.74	7.28 to 8.07	6.08 to 8.22	≤ 7.22
CC(C)(C)OC(=O)N1CCN(C(=O)CN2CCC(CC(=O)N3CCC([C@H]4c5ncc(Br)cc5CCc5cc(Cl)cc(Br)c54)CC3)CC2)CC1 [Compound 8.0]	7.55 to 8.74	7.28 to 8.07	6.08 to 8.22	≤ 7.22
O=C(CC1CCN(CC(=O)N2CCNCC2)CC1)N1CCC([C@H]2c3ncc(Br)cc3CCc3cc(Cl)cc(Br)c32)CC1 [Compound 9.0]	7.55 to 8.74	7.28 to 8.07	6.08 to 8.22	≤ 7.22
O=C(CC1CCN(CC(=O)N2CCc3ccccc32)CC1)N1CCC([C@H]2c3ncc(Br)cc3CCc3cc(Cl)cc(Br)c32)CC1 [Compound 10.0]	7.55 to 8.74		6.08 to 8.22	
CC(C)(C)OC(=O)CN1CCC(CC(=O)N2CCC([C@H]3c4ncc(Br)cc4CCc4cc(Cl)cc(Br)c43)CC2)CC1 [Compound 11.0]	7.55 to 8.74			
O=C(CC1CCN(CC(O)CO)CC1)N1CCC([C@H]2c3ncc(Br)cc3CCc3cc(Cl)cc(Br)c32)CC1 (stereo partly shown) [Compound 20.0]	7.55 to 8.74		6.08 to 8.22	≤ 7.22
